One molecule from ChEMBL document CHEMBL4507319 (2021) can be followed below.

Assay [1] has as its target Tyrosine-protein kinase FRK (Homo sapiens) (UniProt P42685). The experiment in a line: PTK5(h) Eurofins kinase panel. As to conditions: Compound concentration 1.0 uM.
The next assay concerns SNU-16. The experiment in a line: SNU-16 cell line Proliferation assay. Format: functional, Homo sapiens. As to conditions: time 3 day.
Assay [2] concerns the target Serine/threonine-protein kinase Nek7 (Homo sapiens) (UniProt Q8TDX7). Nature of the assay: NEK7(h) Eurofins kinase panel. The settings on record: Compound concentration 1.0 uM.
In assay [3] the target is Interferon-induced, double-stranded RNA-activated protein kinase (Homo sapiens) (UniProt P19525). The experiment in a line: PKR(h) Eurofins kinase panel. The settings on record: Compound concentration 1.0 uM.
In assay [4] the target is T1, Serine/threonine-protein kinase ICK (Homo sapiens) (UniProt Q9UPZ9).
T1 sequence (whole entry): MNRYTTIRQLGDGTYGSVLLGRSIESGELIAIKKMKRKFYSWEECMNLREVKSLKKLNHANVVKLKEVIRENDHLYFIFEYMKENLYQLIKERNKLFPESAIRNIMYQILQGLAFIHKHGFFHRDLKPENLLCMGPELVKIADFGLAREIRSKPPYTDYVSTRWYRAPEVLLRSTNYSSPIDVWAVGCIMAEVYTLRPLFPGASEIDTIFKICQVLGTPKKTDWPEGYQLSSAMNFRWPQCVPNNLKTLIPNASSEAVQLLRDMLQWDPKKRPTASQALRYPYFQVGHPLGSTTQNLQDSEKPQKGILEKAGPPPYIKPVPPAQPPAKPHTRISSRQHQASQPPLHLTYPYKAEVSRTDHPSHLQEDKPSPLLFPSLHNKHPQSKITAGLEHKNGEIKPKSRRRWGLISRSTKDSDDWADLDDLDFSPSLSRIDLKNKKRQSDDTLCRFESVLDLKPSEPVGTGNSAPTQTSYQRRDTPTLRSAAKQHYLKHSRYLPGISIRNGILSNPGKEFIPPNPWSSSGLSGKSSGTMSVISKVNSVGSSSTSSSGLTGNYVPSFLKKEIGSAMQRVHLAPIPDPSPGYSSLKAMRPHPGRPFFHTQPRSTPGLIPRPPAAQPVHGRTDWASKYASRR
Nature of the assay: ICK(h) Eurofins kinase panel. As to conditions: Compound concentration 1.0 uM.

Assay [5] concerns the target [Pyruvate dehydrogenase (acetyl-transferring)] kinase isozyme 4, mitochondrial (Homo sapiens) (UniProt Q16654). The experiment in a line: PDHK4(h) Eurofins kinase panel. The settings on record: Compound concentration 1.0 uM.
Assay [6] has as its target T2, Beta-adrenergic receptor kinase 1 (Homo sapiens) (UniProt P25098).
T2 sequence (whole entry): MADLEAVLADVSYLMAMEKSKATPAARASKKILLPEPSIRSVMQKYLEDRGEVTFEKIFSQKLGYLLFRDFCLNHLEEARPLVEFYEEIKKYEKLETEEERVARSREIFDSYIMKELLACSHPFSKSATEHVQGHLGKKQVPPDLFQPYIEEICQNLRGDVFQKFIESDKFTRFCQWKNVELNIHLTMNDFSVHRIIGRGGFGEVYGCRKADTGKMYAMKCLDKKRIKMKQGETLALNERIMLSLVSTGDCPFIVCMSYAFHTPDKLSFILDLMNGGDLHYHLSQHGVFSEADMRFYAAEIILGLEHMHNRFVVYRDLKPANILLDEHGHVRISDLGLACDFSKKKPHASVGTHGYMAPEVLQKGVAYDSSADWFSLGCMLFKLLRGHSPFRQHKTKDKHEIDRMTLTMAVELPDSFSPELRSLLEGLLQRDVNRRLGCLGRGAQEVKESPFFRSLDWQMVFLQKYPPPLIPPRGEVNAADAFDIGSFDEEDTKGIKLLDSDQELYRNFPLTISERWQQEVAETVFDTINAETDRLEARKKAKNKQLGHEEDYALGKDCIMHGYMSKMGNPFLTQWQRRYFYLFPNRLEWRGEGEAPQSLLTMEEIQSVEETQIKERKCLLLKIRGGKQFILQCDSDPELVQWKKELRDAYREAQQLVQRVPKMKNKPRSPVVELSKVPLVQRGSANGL
Nature of the assay: GRK2(h) Eurofins kinase panel. As to conditions: Compound concentration 1.0 uM.

Assay [7] deals with T3, Calcium/calmodulin-dependent protein kinase type IV (Homo sapiens) (UniProt Q16566).
T3 sequence (whole entry): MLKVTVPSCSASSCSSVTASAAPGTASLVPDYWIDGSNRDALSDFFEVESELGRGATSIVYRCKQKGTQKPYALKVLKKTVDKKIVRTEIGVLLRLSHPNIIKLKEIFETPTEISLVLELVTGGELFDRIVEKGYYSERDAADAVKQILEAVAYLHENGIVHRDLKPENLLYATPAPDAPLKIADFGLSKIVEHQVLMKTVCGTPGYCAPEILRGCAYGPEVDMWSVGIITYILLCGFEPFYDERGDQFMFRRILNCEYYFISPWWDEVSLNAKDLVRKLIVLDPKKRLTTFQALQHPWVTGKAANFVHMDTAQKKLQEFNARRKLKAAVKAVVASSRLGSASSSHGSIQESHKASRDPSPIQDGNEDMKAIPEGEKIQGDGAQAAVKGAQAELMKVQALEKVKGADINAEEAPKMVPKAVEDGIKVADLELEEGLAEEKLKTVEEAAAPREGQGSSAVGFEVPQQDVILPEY
The experiment in a line: CaMKIV(h) Eurofins kinase panel. As to conditions: Compound concentration 1.0 uM.

Assay [8] has as its target Serine/threonine-protein kinase PAK 6 (Homo sapiens) (UniProt Q9NQU5). Nature of the assay: PAK6(h) Eurofins kinase panel. The settings on record: Compound concentration 1.0 uM.
Assay [9] has as its target Rho-associated protein kinase 1 (Homo sapiens) (UniProt Q13464). Nature of the assay: ROCK-I(h) Eurofins kinase panel. As to conditions: Compound concentration 1.0 uM.
In assay [10] the target is Angiopoietin-1 receptor (Homo sapiens) (UniProt Q02763). Nature of the assay: Tie2 (h) Eurofins kinase panel. As to conditions: Compound concentration 1.0 uM.
Assay [11] has as its target Vascular endothelial growth factor receptor 3 (Homo sapiens) (UniProt P35916). Nature of the assay: Flt4(h) Eurofins kinase panel. As to conditions: Compound concentration 1.0 uM.

Sequence of Angiopoietin-1 receptor (Homo sapiens) (Q02763 whole entry): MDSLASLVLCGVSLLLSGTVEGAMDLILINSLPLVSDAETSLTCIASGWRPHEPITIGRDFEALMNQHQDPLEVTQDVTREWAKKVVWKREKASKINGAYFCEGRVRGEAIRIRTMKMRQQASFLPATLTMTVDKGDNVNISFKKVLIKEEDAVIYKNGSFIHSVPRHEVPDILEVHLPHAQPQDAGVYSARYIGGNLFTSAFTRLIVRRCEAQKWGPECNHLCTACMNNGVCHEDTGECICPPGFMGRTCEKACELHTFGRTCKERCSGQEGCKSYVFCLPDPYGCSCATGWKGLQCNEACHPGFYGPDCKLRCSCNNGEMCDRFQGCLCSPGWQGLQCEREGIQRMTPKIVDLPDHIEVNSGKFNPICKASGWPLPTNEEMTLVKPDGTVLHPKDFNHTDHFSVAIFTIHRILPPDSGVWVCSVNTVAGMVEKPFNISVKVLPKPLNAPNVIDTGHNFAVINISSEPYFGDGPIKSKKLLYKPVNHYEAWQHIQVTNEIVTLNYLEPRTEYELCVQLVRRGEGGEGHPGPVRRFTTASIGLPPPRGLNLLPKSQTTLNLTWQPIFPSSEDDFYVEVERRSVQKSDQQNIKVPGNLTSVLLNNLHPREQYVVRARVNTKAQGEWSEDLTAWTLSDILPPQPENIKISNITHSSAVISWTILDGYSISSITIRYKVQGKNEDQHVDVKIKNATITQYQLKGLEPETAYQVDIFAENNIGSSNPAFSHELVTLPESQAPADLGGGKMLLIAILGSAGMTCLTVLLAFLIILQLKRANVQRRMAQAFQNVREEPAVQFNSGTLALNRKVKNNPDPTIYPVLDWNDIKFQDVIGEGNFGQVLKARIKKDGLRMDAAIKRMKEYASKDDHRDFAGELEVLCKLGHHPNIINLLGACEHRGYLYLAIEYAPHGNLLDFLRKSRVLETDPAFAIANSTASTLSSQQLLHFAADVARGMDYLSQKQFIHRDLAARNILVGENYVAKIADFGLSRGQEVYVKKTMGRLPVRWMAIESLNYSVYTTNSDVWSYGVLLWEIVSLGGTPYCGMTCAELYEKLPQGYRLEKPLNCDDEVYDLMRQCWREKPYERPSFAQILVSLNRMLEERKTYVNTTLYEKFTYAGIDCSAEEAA
Sequence of Vascular endothelial growth factor receptor 3 (Homo sapiens) (P35916 whole entry): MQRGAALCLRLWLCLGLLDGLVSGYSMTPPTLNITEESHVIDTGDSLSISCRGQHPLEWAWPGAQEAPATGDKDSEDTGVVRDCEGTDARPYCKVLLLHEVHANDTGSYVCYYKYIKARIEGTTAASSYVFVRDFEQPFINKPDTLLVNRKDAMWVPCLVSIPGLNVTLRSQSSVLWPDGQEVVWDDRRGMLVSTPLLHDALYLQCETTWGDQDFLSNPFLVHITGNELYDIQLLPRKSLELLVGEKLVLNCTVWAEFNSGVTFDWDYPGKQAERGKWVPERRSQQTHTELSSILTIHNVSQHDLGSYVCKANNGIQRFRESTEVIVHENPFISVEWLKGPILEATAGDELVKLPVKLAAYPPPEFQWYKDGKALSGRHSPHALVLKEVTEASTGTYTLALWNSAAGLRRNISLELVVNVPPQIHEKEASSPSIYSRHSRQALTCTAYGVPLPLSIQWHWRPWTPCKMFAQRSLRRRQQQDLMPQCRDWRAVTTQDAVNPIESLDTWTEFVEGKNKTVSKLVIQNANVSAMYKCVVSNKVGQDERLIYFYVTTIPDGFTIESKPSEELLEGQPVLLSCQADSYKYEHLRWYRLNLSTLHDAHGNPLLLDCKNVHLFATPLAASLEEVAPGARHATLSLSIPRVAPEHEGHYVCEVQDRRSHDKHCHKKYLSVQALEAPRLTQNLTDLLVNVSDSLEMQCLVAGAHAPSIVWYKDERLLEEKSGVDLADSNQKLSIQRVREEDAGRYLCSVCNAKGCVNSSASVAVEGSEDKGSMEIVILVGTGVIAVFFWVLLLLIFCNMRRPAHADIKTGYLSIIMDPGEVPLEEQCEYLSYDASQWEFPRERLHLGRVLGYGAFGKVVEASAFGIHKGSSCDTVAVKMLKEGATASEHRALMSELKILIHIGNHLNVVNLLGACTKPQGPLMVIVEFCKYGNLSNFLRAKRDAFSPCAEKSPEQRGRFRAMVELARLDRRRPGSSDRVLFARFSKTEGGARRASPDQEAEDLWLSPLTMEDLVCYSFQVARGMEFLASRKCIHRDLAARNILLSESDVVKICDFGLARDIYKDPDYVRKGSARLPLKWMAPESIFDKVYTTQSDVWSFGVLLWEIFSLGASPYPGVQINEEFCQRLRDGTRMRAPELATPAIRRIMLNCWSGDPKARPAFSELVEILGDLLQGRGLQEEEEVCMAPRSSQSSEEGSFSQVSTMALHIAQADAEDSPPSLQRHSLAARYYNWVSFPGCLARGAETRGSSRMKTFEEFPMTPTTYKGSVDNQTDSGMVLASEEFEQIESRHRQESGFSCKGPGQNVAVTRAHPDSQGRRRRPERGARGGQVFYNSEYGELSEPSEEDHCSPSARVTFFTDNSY
Sequence of Interferon-induced, double-stranded RNA-activated protein kinase (Homo sapiens) (P19525 whole entry): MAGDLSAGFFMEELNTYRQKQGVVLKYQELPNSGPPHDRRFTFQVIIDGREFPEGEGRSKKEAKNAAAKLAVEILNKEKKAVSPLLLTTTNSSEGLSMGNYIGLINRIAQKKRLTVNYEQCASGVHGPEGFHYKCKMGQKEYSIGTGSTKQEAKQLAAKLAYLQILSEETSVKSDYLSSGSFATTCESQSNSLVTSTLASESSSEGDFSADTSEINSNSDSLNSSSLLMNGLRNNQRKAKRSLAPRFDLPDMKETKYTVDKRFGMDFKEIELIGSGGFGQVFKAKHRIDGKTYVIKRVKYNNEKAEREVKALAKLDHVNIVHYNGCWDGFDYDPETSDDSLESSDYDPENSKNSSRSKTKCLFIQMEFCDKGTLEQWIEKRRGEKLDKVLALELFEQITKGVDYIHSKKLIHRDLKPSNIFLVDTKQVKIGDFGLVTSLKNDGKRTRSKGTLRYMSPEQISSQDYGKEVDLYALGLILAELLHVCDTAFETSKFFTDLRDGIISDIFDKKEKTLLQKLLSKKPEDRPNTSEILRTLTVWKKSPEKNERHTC
Sequence of [Pyruvate dehydrogenase (acetyl-transferring)] kinase isozyme 4, mitochondrial (Homo sapiens) (Q16654 whole entry, looked up): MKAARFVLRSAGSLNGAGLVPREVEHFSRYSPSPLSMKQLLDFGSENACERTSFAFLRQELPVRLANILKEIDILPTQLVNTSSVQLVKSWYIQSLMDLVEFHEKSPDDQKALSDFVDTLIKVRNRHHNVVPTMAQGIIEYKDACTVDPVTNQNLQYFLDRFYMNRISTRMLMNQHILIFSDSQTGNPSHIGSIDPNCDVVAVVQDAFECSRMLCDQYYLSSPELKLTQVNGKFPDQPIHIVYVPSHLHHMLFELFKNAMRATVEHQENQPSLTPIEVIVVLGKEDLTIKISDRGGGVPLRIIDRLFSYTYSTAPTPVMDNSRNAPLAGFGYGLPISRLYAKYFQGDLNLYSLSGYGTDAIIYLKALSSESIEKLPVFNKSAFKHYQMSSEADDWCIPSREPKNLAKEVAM
Sequence of Serine/threonine-protein kinase Nek7 (Homo sapiens) (Q8TDX7 whole entry, looked up): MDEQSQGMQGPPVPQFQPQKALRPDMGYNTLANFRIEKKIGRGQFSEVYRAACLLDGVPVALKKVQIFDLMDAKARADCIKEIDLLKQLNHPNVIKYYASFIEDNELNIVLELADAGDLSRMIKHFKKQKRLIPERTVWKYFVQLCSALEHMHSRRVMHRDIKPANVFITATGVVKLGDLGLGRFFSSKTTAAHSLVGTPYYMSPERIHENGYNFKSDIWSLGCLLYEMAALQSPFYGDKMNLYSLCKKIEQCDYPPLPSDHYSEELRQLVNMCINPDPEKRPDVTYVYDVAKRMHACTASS
Sequence of Rho-associated protein kinase 1 (Homo sapiens) (Q13464 2-1354 limits assumed): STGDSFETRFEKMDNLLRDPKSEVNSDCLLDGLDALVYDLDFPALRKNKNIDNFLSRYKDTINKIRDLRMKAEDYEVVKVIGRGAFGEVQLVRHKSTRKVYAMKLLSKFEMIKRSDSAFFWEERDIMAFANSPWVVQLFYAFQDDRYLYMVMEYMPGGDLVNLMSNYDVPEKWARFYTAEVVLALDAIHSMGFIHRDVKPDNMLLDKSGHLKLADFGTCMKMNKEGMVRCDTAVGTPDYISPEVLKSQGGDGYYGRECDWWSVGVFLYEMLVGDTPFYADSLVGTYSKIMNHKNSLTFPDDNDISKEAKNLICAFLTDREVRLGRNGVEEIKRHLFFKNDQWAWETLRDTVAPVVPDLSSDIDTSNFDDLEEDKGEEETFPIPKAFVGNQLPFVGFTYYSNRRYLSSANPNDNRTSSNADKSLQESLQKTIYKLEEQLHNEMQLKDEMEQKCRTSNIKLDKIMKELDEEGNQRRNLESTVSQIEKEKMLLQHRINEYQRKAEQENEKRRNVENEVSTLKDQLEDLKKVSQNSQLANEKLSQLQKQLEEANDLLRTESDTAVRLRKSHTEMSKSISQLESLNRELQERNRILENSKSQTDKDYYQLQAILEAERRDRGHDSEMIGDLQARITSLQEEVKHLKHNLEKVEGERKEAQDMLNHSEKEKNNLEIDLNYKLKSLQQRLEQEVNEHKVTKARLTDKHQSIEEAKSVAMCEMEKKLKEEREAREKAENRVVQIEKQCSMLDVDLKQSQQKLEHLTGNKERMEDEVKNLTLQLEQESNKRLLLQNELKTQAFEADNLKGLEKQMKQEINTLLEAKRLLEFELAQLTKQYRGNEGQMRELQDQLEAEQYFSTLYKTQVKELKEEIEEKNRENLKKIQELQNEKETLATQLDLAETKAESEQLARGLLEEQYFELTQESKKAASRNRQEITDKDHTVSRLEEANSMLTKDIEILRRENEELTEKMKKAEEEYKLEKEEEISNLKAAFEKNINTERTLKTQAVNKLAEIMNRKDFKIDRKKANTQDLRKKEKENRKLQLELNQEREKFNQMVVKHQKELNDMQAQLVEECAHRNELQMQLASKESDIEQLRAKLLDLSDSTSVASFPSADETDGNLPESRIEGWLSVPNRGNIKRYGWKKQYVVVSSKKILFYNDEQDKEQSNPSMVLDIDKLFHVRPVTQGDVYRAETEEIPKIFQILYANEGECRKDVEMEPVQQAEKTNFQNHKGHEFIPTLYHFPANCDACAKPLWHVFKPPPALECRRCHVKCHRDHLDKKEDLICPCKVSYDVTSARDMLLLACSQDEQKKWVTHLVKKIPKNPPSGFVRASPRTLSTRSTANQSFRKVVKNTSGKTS

For `CCc1ccccc1C(=O)Nc1n[nH]c2c(C)c(F)c(C3C(C#N)=C(C)N(C)C(C)=C3C#N)cc12` [BAY-3827], the % residual kinase activity in [1] was 91%; in assay [2], 112%; in assay [3] it was 96%; in assay [4], 99%; in assay [5], 101%; in assay [6] it was 102%. In addition, the % residual kinase activity in assay [7] is 111%; in [8], 86%; in [9], 104%; in assay [10], 81%; in [11] it was 73%. The “Cell Proliferation IC50” value with SNU-16 was 12 µM.
